Reference: article PMC12332266 (Frontiers in Pharmacology, 2025)
Structures can show the parent of a compound that is named as a salt. Where two headings read alike, the source gives them in different places.

Key:
[1] = test system: hiPSC-CM (iCell Cardiomyocytes^2); test: RTCA CardioECR assessment (impedance and electrophysiology parameters); details: for Cell index (CI) MEC / Beating rate (BR) MEC: lowest concentration causing at least 20% change from baseline; for RTCA, MEC (CI) / RTCA, MEC (BR): change ≥20%, Table 2
Outline: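 iCell^2 cardiomyocytes on fibronectin-coated ePlates monitored continuously by impedance for cell index, beating rate and amplitude. Field potential duration and spike amplitude were recorded from day 4–6 after monolayer formation. Data were double-normalized to DMSO control and baseline, with variability given as SD.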

[2] = test system: hiPSC-CM (iCell Cardiomyocytes^2); test: Intracellular miRNA expression by RT-qPCR in hiPSC-CM pellets after 72-hour treatment
Outline: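 After 72-hour treatment and RTCA CardioECR assessment, total RNA from hiPSC-CM pellets was reverse transcribed, pre-amplified and quantified by TaqMan RT-qPCR against a 17-miRNA panel. Triplicates were pooled, so no statistical analysis was performed.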

[3] = ref extensive literature search, cited from earlier work
[4] = hiPSC-CM, 72-hour treatment, at least 20% change, Supplementary Table 1
[5] = lowest concentration tested which produced miRNA upregulation (fold change ≥2), 72 h
[6] = hiPSC-CM, 72-hour treatment, Supplementary Table 1
[7] = hiPSC-CM, 72-hour treatment, change from baseline

SMILES: Cc1cn(-c2cc(NC(=O)c3ccc(C)c(Nc4nccc(-c5cccnc5)n4)c3)cc(C(F)(F)F)c2)cn1 [Nilotinib]
- Cell index (CI) MEC ([1]; hiPSC-CM, 72-hour treatment): ND (ND – not detected, magnitude of change was lower than 20%)
- RTCA, MEC (CI) ([1]; hiPSC-CM): ND (ND – not detected, magnitude of change was lower than 20% for CI/BR)
- Contractility Amplitude MEC ([1]; human, 72 h): 0.1 µM
- Spike Amplitude (SA) MEC ([1]; human, 72 h): 0.01 µM
- intracellular miRNA upregulation in hiPSC-CM, in words [2]: smallest fold change
- miRNAs hiPSC-CM pellet, MEC overall [2]: 0.3 µM
- miRNAs upregulated at the MEC overall (hiPSC-CM pellet) [2]: miR-126-3p
- hsa-miR-7-5p fold change, intracellular ([2]; 0.01 µM, 72 h): 1.2
- hsa-miR-29a-5p fold change, intracellular ([2]; 0.01 µM, 72 h): 0.5
- hsa-miR-126-3p fold change, intracellular ([2]; 0.01 µM, 72 h): 1.4
- hsa-miR-133b fold change, intracellular ([2]; 0.01 µM, 72 h): 0.3
- hsa-miR-146b-5p fold change, intracellular ([2]; 0.01 µM, 72 h): 0.2
- hsa-miR-182-5p fold change, intracellular ([2]; 0.01 µM, 72 h): 0.3
- hsa-miR-185-3p fold change, intracellular ([2]; 0.01 µM, 72 h): 0.7
- hsa-miR-187-3p fold change, intracellular ([2]; 0.01 µM, 72 h): 0.7
- hsa-miR-208b-3p fold change, intracellular ([2]; 0.01 µM, 72 h): 1.0
- hsa-miR-365a-5p fold change, intracellular ([2]; 0.01 µM, 72 h): 0.8
- hsa-miR-7-5p fold change, intracellular ([2]; 0.1 µM, 72 h): 1.2
- hsa-miR-29a-5p fold change, intracellular ([2]; 0.1 µM, 72 h): 0.2
- hsa-miR-96-5p fold change, intracellular ([2]; 0.1 µM, 72 h): 0.3
- hsa-miR-126-3p fold change, intracellular ([2]; 0.1 µM, 72 h): 3.0
- hsa-miR-133b fold change, intracellular ([2]; 0.1 µM, 72 h): 0.2
- hsa-miR-146b-5p fold change, intracellular ([2]; 0.1 µM, 72 h): 0.2
- hsa-miR-182-5p fold change, intracellular ([2]; 0.1 µM, 72 h): 0.2
- hsa-miR-185-3p fold change, intracellular ([2]; 0.1 µM, 72 h): 1.5
- hsa-miR-187-3p fold change, intracellular ([2]; 0.1 µM, 72 h): 0.7
- hsa-miR-208b-3p fold change, intracellular ([2]; 0.1 µM, 72 h): 1.1
- hsa-miR-365a-5p fold change, intracellular ([2]; 0.1 µM, 72 h): 0.2
- hsa-miR-7-5p fold change, intracellular ([2]; 0.3 µM, 72 h): 0.5
- hsa-miR-29a-5p fold change, intracellular ([2]; 0.3 µM, 72 h): 0.2
- hsa-miR-126-3p fold change, intracellular ([2]; 0.3 µM, 72 h): 4.3
- hsa-miR-133b fold change, intracellular ([2]; 0.3 µM, 72 h): 0.4
- hsa-miR-146b-5p fold change, intracellular ([2]; 0.3 µM, 72 h): 0.2
- hsa-miR-182-5p fold change, intracellular ([2]; 0.3 µM, 72 h): 0.7
- hsa-miR-185-3p fold change, intracellular ([2]; 0.3 µM, 72 h): 0.7
- hsa-miR-187-3p fold change, intracellular ([2]; 0.3 µM, 72 h): 0.5
- hsa-miR-208b-3p fold change, intracellular ([2]; 0.3 µM, 72 h): 0.5
- hsa-miR-365a-5p fold change, intracellular ([2]; 0.3 µM, 72 h): 0.7
- hsa-miR-7-5p fold change, intracellular ([2]; 1 µM, 72 h): 0.9
- hsa-miR-29a-5p fold change, intracellular ([2]; 1 µM, 72 h): 0.4
- hsa-miR-96-5p fold change, intracellular ([2]; 1 µM, 72 h): 1.4
- hsa-miR-126-3p fold change, intracellular ([2]; 1 µM, 72 h): 5.5
- hsa-miR-133b fold change, intracellular ([2]; 1 µM, 72 h): 0.3
- hsa-miR-146b-5p fold change, intracellular ([2]; 1 µM, 72 h): 0.3
- hsa-miR-182-5p fold change, intracellular ([2]; 1 µM, 72 h): 0.4
- hsa-miR-185-3p fold change, intracellular ([2]; 1 µM, 72 h): 0.3
- hsa-miR-187-3p fold change, intracellular ([2]; 1 µM, 72 h): 0.7
- hsa-miR-208b-3p fold change, intracellular ([2]; 1 µM, 72 h): 1.2
- Cmax total ([3]; Supplementary Table 1): 840 to 4270 nM
- Cmax total ([3]; Table 1): 840 to 4270 nM

SMILES: CCN(CC)CCNC(=O)c1c(C)[nH]c(/C=C2\C(=O)Nc3ccc(F)cc32)c1C [Sunitinib]
- Beating Rate MEC [1, 4]: 1 µM
- Beating rate (BR) MEC ([1]; hiPSC-CM, 72-hour treatment): 1 µM
- RTCA, MEC (BR) ([1]; hiPSC-CM): 1 µM (BR)
- Spike Amplitude (SA) MEC ([1]; human, 72 h): 0.01 µM
- miRNAs hiPSC-CM pellet, MEC overall [2, 5]: 0.01 µM
- Cmax total ([3]; Supplementary Table 1): 181 to 250 nM
- Cmax total ([3]; Table 1): 180 to 250 nM

SMILES: CC(C)C[C@H](NC(=O)CNC(=O)c1cc(Cl)ccc1Cl)B1OC(=O)C(CC(=O)O)(CC(=O)O)O1 [Ixazomib Citrate]
- Contractility Amplitude magnitude of effect at MEC ([1]; hiPSC-CM, 72-hour treatment): -94%
- Field Potential Duration magnitude of effect at MEC ([1]; hiPSC-CM, 72-hour treatment): -35%
- Spike Amplitude (SA) magnitude of effect at MEC ([1]; hiPSC-CM, 72-hour treatment): +75%
- Beating Rate magnitude of effect at MEC [1, 6]: +33%
- Cell Index magnitude of effect at MEC [1, 6]: -37%
- Field Potential Duration MEC ([1]; hiPSC-CM, 72-hour treatment, at least 10% change): 0.03 µM
- Contractility Amplitude MEC ([1]; hiPSC-CM, 72-hour treatment, at least 20% change): 0.1 µM
- Beating Rate MEC [1, 4]: 0.03 µM
- Spike Amplitude (SA) MEC ([1]; hiPSC-CM, 72-hour treatment, at least 40% change): 0.03 µM
- Beating rate (BR) magnitude of effect at MEC [1, 7]: +33%
- Cell index (CI) magnitude of effect at MEC [1, 7]: −37%
- Beating rate (BR) MEC ([1]; hiPSC-CM, 72-hour treatment): 0.03 µM
- Cell index (CI) MEC ([1]; hiPSC-CM, 72-hour treatment): 0.3 µM
- RTCA, MEC (BR) ([1]; hiPSC-CM): 0.03 µM
- RTCA, MEC (CI) ([1]; hiPSC-CM): 0.3 µM
- hsa-miR-7-5p fold change, intracellular ([2]; 0.03 µM, 72 h): 2.0
- hsa-miR-29a-5p fold change, intracellular ([2]; 0.03 µM, 72 h): 1.5
- hsa-miR-96-5p fold change, intracellular ([2]; 0.03 µM, 72 h): 8.8
- hsa-miR-126-3p fold change, intracellular ([2]; 0.03 µM, 72 h): 1.7
- hsa-miR-133b fold change, intracellular ([2]; 0.03 µM, 72 h): 1.2
- hsa-miR-146b-5p fold change, intracellular ([2]; 0.03 µM, 72 h): 1.0
- hsa-miR-182-5p fold change, intracellular ([2]; 0.03 µM, 72 h): 1.4
- hsa-miR-185-3p fold change, intracellular ([2]; 0.03 µM, 72 h): 1.0
- hsa-miR-187-3p fold change, intracellular ([2]; 0.03 µM, 72 h): 1.1
- hsa-miR-208b-3p fold change, intracellular ([2]; 0.03 µM, 72 h): 0.9
- hsa-miR-7-5p fold change, intracellular ([2]; 0.1 µM, 72 h): 0.3
- hsa-miR-29a-5p fold change, intracellular ([2]; 0.1 µM, 72 h): 2.0
- hsa-miR-96-5p fold change, intracellular ([2]; 0.1 µM, 72 h): 6.4
- hsa-miR-126-3p fold change, intracellular ([2]; 0.1 µM, 72 h): 1.8
- hsa-miR-133b fold change, intracellular ([2]; 0.1 µM, 72 h): 25.3
- hsa-miR-146b-5p fold change, intracellular ([2]; 0.1 µM, 72 h): 1.9
- hsa-miR-182-5p fold change, intracellular ([2]; 0.1 µM, 72 h): 34.9
- hsa-miR-185-3p fold change, intracellular ([2]; 0.1 µM, 72 h): 0.4
- hsa-miR-187-3p fold change, intracellular ([2]; 0.1 µM, 72 h): 3.1
- hsa-miR-208b-3p fold change, intracellular ([2]; 0.1 µM, 72 h): 0.0
- hsa-miR-365a-5p fold change, intracellular ([2]; 0.1 µM, 72 h): 44.3
- hsa-miR-7-5p fold change, intracellular ([2]; 0.3 µM, 72 h): 6.9
- hsa-miR-29a-5p fold change, intracellular ([2]; 0.3 µM, 72 h): 1.7
- hsa-miR-96-5p fold change, intracellular ([2]; 0.3 µM, 72 h): 13.0
- hsa-miR-126-3p fold change, intracellular ([2]; 0.3 µM, 72 h): 2.7
- hsa-miR-133b fold change, intracellular ([2]; 0.3 µM, 72 h): 0.4
- hsa-miR-146b-5p fold change, intracellular ([2]; 0.3 µM, 72 h): 7.1
- hsa-miR-182-5p fold change, intracellular ([2]; 0.3 µM, 72 h): 8.5
- hsa-miR-185-3p fold change, intracellular ([2]; 0.3 µM, 72 h): 2.0
- hsa-miR-187-3p fold change, intracellular ([2]; 0.3 µM, 72 h): 1.6
- hsa-miR-208b-3p fold change, intracellular ([2]; 0.3 µM, 72 h): 0.8
- hsa-miR-365a-5p fold change, intracellular ([2]; 0.3 µM, 72 h): 2.5
- hsa-miR-7-5p fold change, intracellular ([2]; 1 µM, 72 h): 12.6
- hsa-miR-29a-5p fold change, intracellular ([2]; 1 µM, 72 h): 4.7
- hsa-miR-96-5p fold change, intracellular ([2]; 1 µM, 72 h): 13.4
- hsa-miR-126-3p fold change, intracellular ([2]; 1 µM, 72 h): 3.1
- hsa-miR-133b fold change, intracellular ([2]; 1 µM, 72 h): 0.6
- hsa-miR-146b-5p fold change, intracellular ([2]; 1 µM, 72 h): 3.2
- hsa-miR-182-5p fold change, intracellular ([2]; 1 µM, 72 h): 5.6
- hsa-miR-185-3p fold change, intracellular ([2]; 1 µM, 72 h): 0.9
- hsa-miR-187-3p fold change, intracellular ([2]; 1 µM, 72 h): 2.4
- hsa-miR-208b-3p fold change, intracellular ([2]; 1 µM, 72 h): 0.9
- intracellular miRNA upregulation in hiPSC-CM, in words ([2]; 72-hour treatment, four concentrations per drug): highly upregulated hsa-miR-133b, hsa-miR-182-5pand hsa-miR-365a-5p
- miRNAs upregulated at the MEC overall (hiPSC-CM pellet) ([2]; fold change ≥2, 72 h): miR-126-3p, miR-29a-5p, miR-7-5p, miR-96-5p
- miRNAs hiPSC-CM pellet, MEC overall [2, 5]: 0.03 µM
- Cmax total ([3]; Supplementary Table 1): 213 nM
- Cmax total ([3]; Table 1): 210 nM
